Reference: article PMC5666896, “Molecular Docking and Screening Studies of New Natural Sortase A Inhibitors” (International Journal of Molecular Sciences, 2017)
Entries after “also recorded” stand apart in the source; their conditions may differ. Read-outs that look alike come from different tables or passages of the source.

How the values were obtained:
[1] = biological target: T1, SrtA (Staphylococcus aureus, UniProt Q2FV99); test: Sortase A activity assay (FRET, SensoLyte 520 kit); format: biochemical, S. aureus; details: for SrtA inhibitory activity relative to myricetin (fold lower; myricetin IC50 fold lower than this compound): ratio of IC50 values to myricetin
T1 construct: purchased Anaspec, San Jose, CA, USA
Procedure: The inhibitory activity of all of the compounds was determined by quantifying the increase in fluorescence intensity upon a cleavage 5-FAM/QXL® FRET substrate using a SensoLyte® 520 Sortase A Activity Assay Kit (Anaspec, San Jose, CA, USA). According to kit protocol, reactions were performed in a 96-well plate, with each well containing 10 μL test compound solution, 40 μL enzyme solution, and 50 μL sortase substrate solution. All compounds were dissolved in dimethyl sulfoxide (DMSO) and diluted with sterilized distilled water. The final concentration of DMSO was 1%. Each compound diluted in buffer to the tested concentration and was checked for intrinsic fluorescence. According to the kit protocol, we used the enzyme without the test compound as a control, a 1% DMSO control, and a substrate control. We used the kit inhibitor, 4-hydroxymercuribenzoic acid (HMB), as the positive control. Reactions were carried out for 1 h at room temperature and analyzed fluorometrically (SpectraMAX Gemini XS, CA, USA) at Ex/Em = 490 nm/520 nm. All reported values are the means of triplicate assays.

[2] = test system: Daphnia magna; test: in vivo; details: for Maximum lethality: after 48 h, tested 0.5 to 100 μM; for Highest lethality: after 48 h of exposure at 100 μM
Procedure: (§1) The Daphnia magna test was performed in 4 mL 12-tissue culture wells, using 10 daphnids/well, with each sample being tested in duplicate. […] All experiments were conducted in the dark, in a plant growth chamber (Sanyo MLR-351 H, San Diego, CA, USA) at 25 ± 1 °C [32, 33].
(§2) Statistical analysis of the inhibitory effect on SrtA and the Daphnia magna bioassay was performed using GraphPad Prism version 5.01 software (GraphPad Software, Inc., La Jolla, CA, USA). A student’s t-test (p < 0.05) was applied in order to analyze the results obtained from replicates. […] The inhibition (I %) and lethality percentage (L %) values were calculated and plotted against the logarithm of concentrations and the corresponding curves were calculated using the least squares fit method. […] Whenever the obtained results permitted, the upper and lower limits of the 95% confidence interval (95% CI) and the correlation coefficient (r^2) were calculated.

[3] = in vivo; details: in vivo
Procedure: as §1, §2

T1 sequence (Q2FV99 whole entry): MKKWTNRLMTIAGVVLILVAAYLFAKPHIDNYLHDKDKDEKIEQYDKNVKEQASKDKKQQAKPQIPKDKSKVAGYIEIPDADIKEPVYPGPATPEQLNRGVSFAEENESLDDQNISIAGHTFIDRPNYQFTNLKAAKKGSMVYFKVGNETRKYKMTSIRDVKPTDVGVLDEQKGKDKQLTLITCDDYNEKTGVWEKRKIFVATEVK

Q: For `O=c1ccc2ccccc2o1` [coumarin, Coumarin], which “SrtA inhibition (result in words)” value [1] is on record?
A: Its value is “small inhibitory effect”.

Q: Which IC50 [1] does the source give for `O=c1c(O)c(-c2cc(O)c(O)c(O)c2)oc2cc(O)cc(O)c12` [Myricetin] here?
A: The IC50 was 4.63 µM.

Q: And the “SrtA inhibition (result in words)” value [1]?
A: The value was “statistically significant SrtA inhibition”.

Q: What about the inhibition at 100 µM [1] of the same compound?
A: The inhibition at 100 µM was 92%.

Q: And the Maximum lethality [2]?
A: Its Maximum lethality is at most 30%.

Q: What about the Highest lethality [2] of the same compound?
A: The Highest lethality was at most 30%.

Q: For `O=c1cc(-c2ccccc2)oc2cc(O)cc(O)c12` [Chrysin], which “SrtA inhibition (result in words)” value [1] is on record?
A: The value was “statistically significant SrtA inhibition”.

Q: And the LC50 at 48 h [3]?
A: Its LC50 at 48 h is 17.7 µM.

Q: With `COc1cc(/C=C/C(=O)O)ccc1O` [trans-ferulic acid, trans-Ferulic acid] as the compound, how does the “SrtA inhibition (result in words)” value [1] read?
A: Its value is “inactive”.

Q: For `O=c1ccc2ccc(O)cc2o1` [Umbelliferone], which “SrtA inhibition (result in words)” value [1] is on record?
A: The value was “statistically significant SrtA inhibition; also recorded: small inhibitory effect”.

Q: What about the inhibition at 250 µM [1] of the same compound?
A: Its inhibition at 250 µM is 4.04%.

Q: What about the LC50 at 48 h [3] of the same compound?
A: Its LC50 at 48 h is 105 µM.

Q: For `C[C@@H]1O[C@@H](OC[C@H]2O[C@@H](Oc3c(-c4ccc(O)c(O)c4)oc4cc(O)cc(O)c4c3=O)[C@H](O)[C@@H](O)[C@@H]2O)[C@H](O)[C@H](O)[C@H]1O` [Rutin trihydrate], which “SrtA inhibition (result in words)” value [1] is on record?
A: Its value is “statistically significant SrtA inhibition”.

Q: And the inhibition at 500 µM [1]?
A: Its inhibition at 500 µM is 28.7%.

Q: And the Maximum lethality [2]?
A: Its Maximum lethality is at most 30%.

Q: What about the Highest lethality [2] of the same compound?
A: Its Highest lethality is at most 30%.

Q: Which IC50 [1] does the source give for `COc1cc2c(cc1OC)-c1cc3ccc(OC)c(OC)c3c[n+]1CC2` [Palmatine chloride] here?
A: The IC50 was 52.8 µM.

Q: And the “SrtA inhibition (result in words)” value [1]?
A: Its value is “statistically significant SrtA inhibition”.

Q: And the inhibition at 500 µM [1]?
A: The inhibition at 500 µM was 85.3%.

Q: And the “SrtA inhibitory activity relative to myricetin (fold lower; myricetin IC50 fold lower than this compound)” value [1]?
A: The value was “eleven-fold”.

Q: What about the Maximum lethality [2] of the same compound?
A: The Maximum lethality was at most 30%.

Q: And the Highest lethality [2]?
A: Its Highest lethality is at most 30%.

Q: What does the source list for `C[C@@H]1CC[C@H]2[C@@H](C)C(=O)O[C@@H]3O[C@@]4(C)CC[C@@H]1[C@]32OO4` [Artemisinin, reference compound]?
A: SrtA inhibition (result in words) [1]: statistically significant SrtA inhibition; inhibition at 50 µM [1]: 5.32%

Q: What does the source list for `O=c1ccc2cc(O)c(O)cc2o1` [Esculetin]?
A: IC50 [1]: 36.2 µM; SrtA inhibition (result in words) [1]: statistically significant SrtA inhibition; inhibition at 250 µM [1]: 83.6%; SrtA inhibitory activity relative to myricetin (fold lower; myricetin IC50 fold lower than this compound) [1]: eight-fold; Maximum lethality [2]: ≤ 30%; Highest lethality [2]: ≤ 30%

Q: For `O=C(O)c1cc[c]([Hg][OH])cc1` [HMB, 4-hydroxymercuribenzoic acid, reference compound], which “Inhibition (%)” value ([1]; 5 μM, after 1 h of incubation) is on record?
A: The value was 93.87%.

Q: What about the IC50 ([1]; after 1 h of incubation, read-out: IC50) of the same compound?
A: Its IC50 is 0.114 µM.

Q: Which “SrtA inhibition (result in words)” value [1] does the source give for `O=C(O)[C@]1(O)C[C@@H](O)[C@@H](O)[C@H](O)C1` [Quinic acid] here?
A: The value was “statistically significant SrtA inhibition”.

Q: What about the inhibition at 500 µM [1] of the same compound?
A: Its inhibition at 500 µM is 19.6%.

Q: For `O=c1c(-c2ccc(O)cc2)coc2cc(O)cc(O)c12` [Genistein], which inhibition at 500 µM [1] is on record?
A: Its inhibition at 500 µM is 9.63%.

Q: For `C[C@@H]1O[C@@H](OC[C@H]2O[C@@H](Oc3c(-c4ccc(OCCO)c(OCCO)c4)oc4cc(OCCO)cc(O)c4c3=O)[C@H](O)[C@@H](O)[C@@H]2O)[C@H](O)[C@H](O)[C@H]1O` [Troxerutin], which “SrtA inhibition (result in words)” value [1] is on record?
A: Its value is “statistically significant SrtA inhibition”.

Q: And the inhibition at 500 µM [1]?
A: Its inhibition at 500 µM is 23.5%.

Q: And the Maximum lethality [2]?
A: Its Maximum lethality is at most 30%.

Q: What about the Highest lethality [2] of the same compound?
A: The Highest lethality was at most 30%.

Q: For `C[C@@H]1O[C@@H](O[C@H]2[C@H](Oc3cc(O)c4c(c3)O[C@H](c3ccc(O)cc3)CC4=O)O[C@H](CO)[C@@H](O)[C@@H]2O)[C@H](O)[C@H](O)[C@H]1O` [naringin, Naringin], which “SrtA inhibition (result in words)” value [1] is on record?
A: The value was “statistically significant SrtA inhibition”.

Q: And the Maximum lethality [2]?
A: Its Maximum lethality is at most 30%.

Q: With `O=C(O)/C=C/c1ccc(O)c(O)c1` [caffeic acid, Caffeic acid] as the compound, how does the “SrtA inhibition (result in words)” value [1] read?
A: Its value is “inactive”.

Q: For `O=c1ccc2cc(O[C@@H]3O[C@H](CO)[C@@H](O)[C@H](O)[C@H]3O)c(O)cc2o1` [Esculin, Esculin sesquihydrate], which “SrtA inhibition (result in words)” value [1] is on record?
A: Its value is “low SrtA inhibition”.
